Measured values published in patent US20080058249A1, “Complexes” (Lipopeptide AB, priority 2004, published 2008).

Legend:
[1] = target: elastase from Pseudomonas aeruginosa (Pseudomonas aeruginosa, UniProt P14756); assay: in vitro; conditions: for RRT 0.66 degradation fragment, normalized peak area / RRT 0.88 degradation fragment, normalized peak area: elastase:peptide approx. 1:2500, 37° C.
Protocol: (§1) In this study we compared the enzymatic degradation rate of LL-37 in an aqueous buffered system to that of a colloidal solution of LL-37 in a galactolipid complex. The experimental procedures for enzymatic degradation were essentially as described using a reverse phase HPLC system (C-18) operating at 210 nm.
(§2) In brief: Two stock solutions A and B were prepared. Solution A, “the reference”, contained 100 μg/ml of LL-37 in PBS, pH 7.4. Solution B, “the complex”, contained in addition to 100 μg/ml LL-37 in PBS, pH 7.4, 0.2% of galactolipids (w/w). Two sets of samples were prepared in Eppendorf tubes, 8 tubes from each stock solution. […] The reactions were kept at 37° C. and samples were withdrawn at predetermined intervals. The reactions were stopped by heating the samples to 100° C. for 5 minutes. After stopping, the reactions were stored at −18° C. prior analysis.
(§3) All samples were analysed in duplicates and the peak area for LL-37 was normalized to that of the negative control, which was set to 1.00. Retention times are given as relative retention time (RRT) to LL-37, which is set to RRT=1.00.

[2] = tested on: elastase from Pseudomonas aeruginosa; assay: in vitro; conditions: isolated enzyme elastase, pH 7.4
Protocol: as §1, §2, §3

[3] = Ocular inspection of appearance of aqueous peptide/CPL-Galactolipid mixtures; type: physicochemical; conditions: after 2 h and 2 days of storage at room temperature; 0.20% CPL-Galactolipid; LL-25 68-98 ppm, LL-37 98-213 ppm, LL-38 50-102 ppm, LL-20 52-98 ppm
Protocol: To prepare the solution of the complex the peptide and CPL-Galactolipid are weighed in a 100 ml glass flask and then PBS (10 mM sodium phosphate, 150 mM NaCl, pH 7.4) is added. The sample is vigorously shaken, using a suitable shaker at high speed, for 1-2 h or until the mixture has become clear, and is then allowed to equilibrate and settle for about 30 min at room temperature. Samples of LL-20, LL-25, LL-37 and LL-38 as trifluoroacetate salts and CPL-Galactolipid were prepared using the amounts stated in Table 1 below. The peptide mixtures all contained 0.20% CPL-Galactolipid.
Ocular inspections were made after 2 h and 2 days of storage at room temperature of the mixtures. […] The molecular weight of LL-20 was calculated to be 2.4 kDa.

Bacillius megaterium = assay: Inhibition zone assay of antimicrobial activity; type: cell-based; conditions: complex with CPL-Galactolipid; LL-25 at 68 ppm
Protocol: Test of antimicrobial activity of LL-20 and LL-25 complexes The antimicrobial activity was tested using an inhibition zone assay. As a test bacterium, Bacillius megaterium was used.

[4] = at certain weight ratios; cited from earlier work
[5] = when complexed with galactolipids; cited from earlier work

Chain of elastase from Pseudomonas aeruginosa (Pseudomonas aeruginosa, UniProt P14756) (P14756 198-498): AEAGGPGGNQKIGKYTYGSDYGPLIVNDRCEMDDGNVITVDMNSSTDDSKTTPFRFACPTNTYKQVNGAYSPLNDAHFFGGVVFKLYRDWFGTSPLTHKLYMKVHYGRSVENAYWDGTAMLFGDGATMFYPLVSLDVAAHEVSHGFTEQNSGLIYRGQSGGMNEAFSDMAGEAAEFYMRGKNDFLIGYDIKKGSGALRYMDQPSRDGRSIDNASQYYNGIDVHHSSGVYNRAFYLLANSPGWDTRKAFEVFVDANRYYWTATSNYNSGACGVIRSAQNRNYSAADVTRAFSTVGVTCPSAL

CC[C@H](C)[C@H](NC(=O)[C@H](CCCCN)NC(=O)[C@H](CCC(=O)O)NC(=O)[C@H](CCCCN)NC(=O)[C@H](CO)NC(=O)[C@H](CCCCN)NC(=O)[C@H](CCCNC(=N)N)NC(=O)[C@H](Cc1ccccc1)NC(=O)[C@H](Cc1ccccc1)NC(=O)[C@H](CC(=O)O)NC(=O)CNC(=O)[C@H](CC(C)C)NC(=O)[C@@H](N)CC(C)C)C(=O)NCC(=O)N[C@@H](CCCCN)C(=O)N[C@@H](CCC(=O)O)C(=O)N[C@@H](Cc1ccccc1)C(=O)N[C@@H](CCCCN)C(=O)N[C@@H](CCCNC(=N)N)C(=O)N[C@H](C(=O)N[C@H](C(=O)N[C@@H](CCC(N)=O)C(=O)N[C@@H](CCCNC(=N)N)C(=O)N[C@H](C(=O)N[C@@H](CCCCN)C(=O)N[C@@H](CC(=O)O)C(=O)N[C@@H](Cc1ccccc1)C(=O)N[C@@H](CC(C)C)C(=O)N[C@@H](CCCNC(=N)N)C(=O)N[C@@H](CC(N)=O)C(=O)N[C@@H](CC(C)C)C(=O)N[C@H](C(=O)N1CCC[C@H]1C(=O)N[C@@H](CCCNC(=N)N)C(=O)N[C@H](C(=O)N[C@@H](CCC(=O)O)C(=O)N[C@@H](CO)C(=O)O)[C@@H](C)O)C(C)C)[C@@H](C)CC)C(C)C)[C@@H](C)CC [LL-37 in aqueous buffer]
RRT 0.66 degradation fragment, normalized peak area ([1]; 1 min): 0.1
RRT 0.88 degradation fragment, normalized peak area ([1]; 1 min): 0.4
RRT 0.66 degradation fragment, normalized peak area ([1]; 5 min): 0.14
RRT 0.88 degradation fragment, normalized peak area ([1]; 5 min): 0.36
RRT 0.66 degradation fragment, normalized peak area ([1]; 15 min): 0.27
RRT 0.88 degradation fragment, normalized peak area ([1]; 15 min): 0.04
RRT 0.66 degradation fragment, normalized peak area ([1]; 30 min): 0.54
RRT 0.66 degradation fragment, normalized peak area ([1]; 1 h): 0.46
RRT 0.66 degradation fragment, normalized peak area ([1]; 4 h): 0.31
RRT 0.66 degradation fragment, normalized peak area ([1]; 20 h): 0.08
Degradation when treated with elastase ([1]; elastase from Pseudomonas aeruginosa, 37° C., up to 20 h): rapidly degraded
RRT 1.00 (LL-37) peak area normalized to negative control (1.00) ([1]; time 0, 100 μg/ml LL-37, PBS pH 7.4, 37° C.): 1.00
remaining at 1 min, 100 μg/ml [2]: 30%
remaining at 5 min, 100 μg/ml [2]: 23%

LLGDFFRKSKEKIGKEFKRIVQRIK [LL-25]
Ocular inspection of the mixtures [3]: clear or almost clear solutions
Antimicrobial activity (Bacillius megaterium): showed an antimicrobial activity

LLGDFFRKSKEKIGKEFKRIVQRIKDFLRNLVPRTES [LL-37]
Ocular inspection of the mixtures [3]: clear or almost clear solutions
Formation of colloidal solutions with galactolipids [4]: formed stable, clear colloidal solutions
In vitro cytotoxicity [5]: reduced

LLGDFFRKSKEKIGKEFKRIVQRIKDFLRNLVPRTESS [LL-38]
Ocular inspection of the mixtures [3]: clear or almost clear solutions
